From patent US20260125397A1, “MK2 DEGRADERS AND USES THEREOF” (Kymera Therapeutics, Inc., priority 2023, published 2026)

These molecules were tested against T1, MK2 (Homo sapiens, UniProt P49137) (assay: MK2 degradation in human SW1353 cells (MSD, 24 h)). Conditions: read-out: MK2 MSD SW 1353 24 h Dmax %.
Format: cell-based
Set-up: endogenous in cells; host or cells: SW-1353 (ATCC HTB-94)
Procedure: The human chondrocyte cancer cell line SW-1353 (ATCC(HTB-94)) was cultured in 96 well plates (Coming 3894) at a density of 200,000 cells per well in 100 microlitres in complete growth medium of Leibovitz's L-15 Medium (Gibco) pus 10% fetal Bovine Serum (Coming) and Penicillin/Streptomycin (SolarBio) at 37 degrees Celsius. A serial dilution of each compound (usually 3 to 5 fold serial dilutions up to 10 separate concentration points) was added to individual wells from a 10 millimolar stock solution, at a background concentration of 0.10% DMSO and the cells were shaken at 600 rpm for 5 minutes and then were cultured for 24 hours at 37 degrees Celsius. Separately, a custom MSD (MesoScaleDiscovery, L15XA-3) plate for detection of human MK2 was prepared by coating the plate with the commercial AbCam ab247272 reagent in 1× Phosphate Buffered Saline at 40 microlitres per well and incubated at 4 degrees Celsius overnight. The next day, the MSD plate was washed with 150 microlitres of Tween buffered saline, blocked with MSD blocking buffer (3% Blocker A from MSD), and washed again.
The cell plate was centrifuged at 3,200 g for 5 minutes and the supernatant was discarded and 100 microlitres of RIPA lysis buffer (containing proteinase inhibitors, Boston BioProducts BP-115D) was added and the plate was sealed and shaken on ice for 20 minutes. The plate was centrifuged as before and 70 microlitres of sample lysate was added to the MSD plates and they were shaken at room temperature for 1 hour at 600 rpm. The MSD plate was washed 3 times as before and then the primary MK2 detection antibody (Santa Cruz sc-100393) was added at a final concentration of 1 microgram per ml at 25 microlitres per well and shaken at room temperature for 1 hour at 600 rpm.
(§1) After 3 more washes, the secondary detection antibody (SULFO-Tag anti rabbit antibody R32AB-5) was added at a final concentration of 1 microgram per ml at 25 microlitres per well and shaken at room temperature for 1 hour at 600 rpm. After 3 more washes, the 1X MSD (diluted from 5X concentrate with water) reading buffer was added at 150 microlitres per well and read on the MSD instrument Meso Sector S 600.
(§2) The inhibition/degradation curves and DC50 values were plotted and calculated using XL Fit (version v5.3.1.3) using equation 201 and a 4 parameter logistic model whereby fit=(A+((B−A)/(1+((x/C)D))) where A is the Bottom and B is the Top and C is the IC50 and D is the slope and high C is the signal for the DMSO treated cells and Low C is the signal is the signal for the lysis buffer.

T1 sequence (P49137 whole entry): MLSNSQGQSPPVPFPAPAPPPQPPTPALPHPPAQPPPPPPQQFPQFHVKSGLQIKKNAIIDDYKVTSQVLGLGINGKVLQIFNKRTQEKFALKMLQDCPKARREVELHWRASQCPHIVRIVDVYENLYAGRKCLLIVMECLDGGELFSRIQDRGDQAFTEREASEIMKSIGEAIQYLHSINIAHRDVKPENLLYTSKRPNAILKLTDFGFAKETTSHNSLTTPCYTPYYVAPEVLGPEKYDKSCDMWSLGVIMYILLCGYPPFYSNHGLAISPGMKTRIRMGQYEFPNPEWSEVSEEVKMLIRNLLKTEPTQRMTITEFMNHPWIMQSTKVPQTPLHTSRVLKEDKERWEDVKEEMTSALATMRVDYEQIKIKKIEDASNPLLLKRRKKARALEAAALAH

Compound | Dmax [%]
C[C@@H]1CNc2c(sc3ccc4nc(N5CCN(CCC6CCC7(CC6)CCN(C(=O)c6ccc(Cl)c(N8CCC(=O)NC8=O)c6)CC7)CC5)ccc4c23)C(=O)N1 [I-26] | > 75
C[C@@H]1CNc2c(sc3ccc4nc(N5CCC(N(CC(F)(F)F)C6CC7(CCN(c8ccc9c(c8)n(C)c(=O)n9C8CCC(=O)NC8=O)CC7)C6)CC5)ccc4c23)C(=O)N1 (stereo partly drawn) [I-27] | > 75
Cn1c(=O)n(C2CCC(=O)NC2=O)c2ccc(N3CC(CN4CCN(c5ccc(-c6cc(-c7cc8c(o7)C7(CC7)CNC8=O)ccn6)cc5)CC4)C3)cc21 (stereo not drawn) [I-28] | > 75
Cn1c(=O)n(C2CCC(=O)NC2=O)c2ccc(N3CC(CN4CCN(c5ccc(-c6cc(-c7cc8c(o7)C7(CC7)CNC8=O)ncn6)cc5)CC4)C3)cc21 (stereo not drawn) [I-29] | > 50
Cn1c(=O)n(C2CCC(=O)NC2=O)c2ccc(N3CC(CN4CCN(c5ccc(-c6cc(-c7cc8c([nH]7)C7(CC7)CNC8=O)ncn6)cc5)CC4)C3)cc21 (stereo not drawn) [I-30] | 50 to 75
O=C1CCN(c2cncc3c(CCN4CCN(c5ccc(-c6nccc(-c7cc8c([nH]7)C7(CCC7)CNC8=O)n6)c(F)c5)CC4)cccc23)C(=O)N1 [I-31] | > 75

Same assay, conditions: read-out: MK2 MSD SW1353 degradation 24 h GMean External Abs DC50

Compound | DC50 [nM]
C[C@@H]1CNc2c(sc3ccc4nc(N5CCN(CCC6CCC7(CC6)CCN(C(=O)c6ccc(Cl)c(N8CCC(=O)NC8=O)c6)CC7)CC5)ccc4c23)C(=O)N1 [I-26] | 1 to 10
C[C@@H]1CNc2c(sc3ccc4nc(N5CCC(N(CC(F)(F)F)C6CC7(CCN(c8ccc9c(c8)n(C)c(=O)n9C8CCC(=O)NC8=O)CC7)C6)CC5)ccc4c23)C(=O)N1 (stereo partly drawn) [I-27] | 1 to 10
Cn1c(=O)n(C2CCC(=O)NC2=O)c2ccc(N3CC(CN4CCN(c5ccc(-c6cc(-c7cc8c(o7)C7(CC7)CNC8=O)ccn6)cc5)CC4)C3)cc21 (stereo not drawn) [I-28] | < 1
Cn1c(=O)n(C2CCC(=O)NC2=O)c2ccc(N3CC(CN4CCN(c5ccc(-c6cc(-c7cc8c(o7)C7(CC7)CNC8=O)ncn6)cc5)CC4)C3)cc21 (stereo not drawn) [I-29] | > 100
Cn1c(=O)n(C2CCC(=O)NC2=O)c2ccc(N3CC(CN4CCN(c5ccc(-c6cc(-c7cc8c([nH]7)C7(CC7)CNC8=O)ncn6)cc5)CC4)C3)cc21 (stereo not drawn) [I-30] | < 1
O=C1CCN(c2cncc3c(CCN4CCN(c5ccc(-c6nccc(-c7cc8c([nH]7)C7(CCC7)CNC8=O)n6)c(F)c5)CC4)cccc23)C(=O)N1 [I-31] | 1 to 10

These molecules were tested against T1, MK2 (assay: MK2 degradation in human THP-1 monocytic cells (MSD, 24 h)). Conditions: THP-1 cells.
Format: cell-based
Set-up: endogenous in cells
Procedure: The human monocytic cancer cell line THP-1 (ATCC (TIB-202)) was cultured in 96 well plates (Coming 3894) at a density of 200,000 cells per well in 100 microlitres in complete growth medium of RPMI 1640 (Gibco) pus 10% fetal Bovine Serum (Coming) and Penicillin/Streptomycin (SolarBio) at 37 degrees Celsius and 5% CO2. A serial dilution of each compound (usually 3 to 5 fold serial dilutions up to 10 separate concentration points) was added to individual wells from a 10 millimolar stock solution, at a background concentration of 0.1% DMSO and the cells were shaken at 600 rpm for 5 minutes and then were cultured for 24 hours at 37 degrees Celsius and 5% carbon dioxide. Separately, a custom MSD (MesoScaleDiscovery, L15XA-3) plate for detection of human MK2 was prepared by coating the plate with the commercial AbCarn ab247272 reagent in 1× Phosphate Buffered Saline at 40 microlitres per well and incubated at 4 degrees Celsius overnight. The next day, the MSD plate was washed with 150 microlitres of Tween buffered saline, blocked with MSD blocking buffer (3% BlockerA from MSD), and washed again.
The cell plate was centrifuged at 3,200 g for 5 minutes and the supernatant was discarded and 100 microlitres of RIPA lysis buffer (containing proteinase inhibitors, Boston BioProducts BP-115D) was added and the plate was sealed and shaken on ice for 20 minutes. The plate was centrifuged as before and 70 microlitres of sample lysate was added to the MSD plates and they were shaken at room temperature for I hour at 600 rpm. The MSD plate was washed 3 times as before and then the primary MK2 detection antibody (Santa Cruz sc-100393) was added at a final concentration of 1 microgram per ml at 25 microlitres per well and shaken at room temperature for 1 hour at 600 rpm.
as §1
as §2, with “IC50and” for “IC50 and”

Compound | Dmax [%]
C[C@@H]1CNc2c(sc3ccc4nc(N5CCN(CCC6CCC7(CC6)CCN(C(=O)c6ccc(Cl)c(N8CCC(=O)NC8=O)c6)CC7)CC5)ccc4c23)C(=O)N1 [I-26] | > 75
C[C@@H]1CNc2c(sc3ccc4nc(N5CCC(N(CC(F)(F)F)C6CC7(CCN(c8ccc9c(c8)n(C)c(=O)n9C8CCC(=O)NC8=O)CC7)C6)CC5)ccc4c23)C(=O)N1 (stereo partly drawn) [I-27] | > 75
Cn1c(=O)n(C2CCC(=O)NC2=O)c2ccc(N3CC(CN4CCN(c5ccc(-c6cc(-c7cc8c(o7)C7(CC7)CNC8=O)ccn6)cc5)CC4)C3)cc21 (stereo not drawn) [I-28] | > 75
Cn1c(=O)n(C2CCC(=O)NC2=O)c2ccc(N3CC(CN4CCN(c5ccc(-c6cc(-c7cc8c(o7)C7(CC7)CNC8=O)ncn6)cc5)CC4)C3)cc21 (stereo not drawn) [I-29] | > 50
Cn1c(=O)n(C2CCC(=O)NC2=O)c2ccc(N3CC(CN4CCN(c5ccc(-c6cc(-c7cc8c([nH]7)C7(CC7)CNC8=O)ncn6)cc5)CC4)C3)cc21 (stereo not drawn) [I-30] | 50 to 75
O=C1CCN(c2cncc3c(CCN4CCN(c5ccc(-c6nccc(-c7cc8c([nH]7)C7(CCC7)CNC8=O)n6)c(F)c5)CC4)cccc23)C(=O)N1 [I-31] | > 75

Same assay, conditions: THP-1 cells, read-out: MK2 MSD THP-1 degradation 24 h GMean External Abs DC50

Compound | DC50 [nM]
C[C@@H]1CNc2c(sc3ccc4nc(N5CCN(CCC6CCC7(CC6)CCN(C(=O)c6ccc(Cl)c(N8CCC(=O)NC8=O)c6)CC7)CC5)ccc4c23)C(=O)N1 [I-26] | < 1
C[C@@H]1CNc2c(sc3ccc4nc(N5CCC(N(CC(F)(F)F)C6CC7(CCN(c8ccc9c(c8)n(C)c(=O)n9C8CCC(=O)NC8=O)CC7)C6)CC5)ccc4c23)C(=O)N1 (stereo partly drawn) [I-27] | < 1
Cn1c(=O)n(C2CCC(=O)NC2=O)c2ccc(N3CC(CN4CCN(c5ccc(-c6cc(-c7cc8c(o7)C7(CC7)CNC8=O)ccn6)cc5)CC4)C3)cc21 (stereo not drawn) [I-28] | < 1
Cn1c(=O)n(C2CCC(=O)NC2=O)c2ccc(N3CC(CN4CCN(c5ccc(-c6cc(-c7cc8c(o7)C7(CC7)CNC8=O)ncn6)cc5)CC4)C3)cc21 (stereo not drawn) [I-29] | > 100
Cn1c(=O)n(C2CCC(=O)NC2=O)c2ccc(N3CC(CN4CCN(c5ccc(-c6cc(-c7cc8c([nH]7)C7(CC7)CNC8=O)ncn6)cc5)CC4)C3)cc21 (stereo not drawn) [I-30] | < 1
O=C1CCN(c2cncc3c(CCN4CCN(c5ccc(-c6nccc(-c7cc8c([nH]7)C7(CCC7)CNC8=O)n6)c(F)c5)CC4)cccc23)C(=O)N1 [I-31] | < 1
